According to patent US8344001B2, “Heterocyclic H3 antagonists” (High Point Pharmaceuticals, LLC, priority 2007, dated 2013):
pIC50, pKi: −log10 of the molar value.

Assays:
[1] = molecular target: CYP2C9 (Homo sapiens, UniProt P11712); test: CYP2C9 inhibition; assay type: in vitro ADME; details: read-out: CYP2C9inh [IC50]
[2] = molecular target: CYP2D6 (Homo sapiens, UniProt P10635); test: CYP2D6 inhibition; assay type: in vitro ADME; details: read-out: CYP2D6inh [IC50]
[3] = molecular target: CYP3A4 (Homo sapiens, UniProt P08684); test: CYP3A4 inhibition; assay type: in vitro ADME; details: read-out: CYP3A4inh [IC50]
CYP3A4, sequence (P08684 whole entry): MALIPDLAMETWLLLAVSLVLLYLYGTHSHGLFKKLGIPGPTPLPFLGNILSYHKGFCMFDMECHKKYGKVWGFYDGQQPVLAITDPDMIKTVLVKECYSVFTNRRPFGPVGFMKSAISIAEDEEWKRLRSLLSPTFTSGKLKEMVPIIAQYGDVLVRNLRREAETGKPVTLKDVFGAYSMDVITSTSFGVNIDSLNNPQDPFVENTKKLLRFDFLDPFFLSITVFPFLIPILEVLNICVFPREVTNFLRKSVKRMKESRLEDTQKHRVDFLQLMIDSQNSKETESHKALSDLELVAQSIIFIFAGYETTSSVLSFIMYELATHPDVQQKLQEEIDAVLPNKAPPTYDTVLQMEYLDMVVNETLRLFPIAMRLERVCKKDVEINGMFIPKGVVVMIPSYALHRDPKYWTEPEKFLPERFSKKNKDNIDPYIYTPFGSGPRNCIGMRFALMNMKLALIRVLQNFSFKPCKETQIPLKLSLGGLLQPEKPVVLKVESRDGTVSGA

[4] = test system: rat; test: Open cage schedule-fed rat model, food intake; assay type: in vivo; details: for Feed. Inhib. rat [Response 3 h]: response at 3 h
[5] = molecular target: Human H3 (Homo sapiens, UniProt Q9Y5N1); test: Functional assay II, human H3 GTPγS; assay type: biochemical; details: read-out: hH3-GTPgS) [Ki]
Human H3, sequence (Q9Y5N1 whole entry): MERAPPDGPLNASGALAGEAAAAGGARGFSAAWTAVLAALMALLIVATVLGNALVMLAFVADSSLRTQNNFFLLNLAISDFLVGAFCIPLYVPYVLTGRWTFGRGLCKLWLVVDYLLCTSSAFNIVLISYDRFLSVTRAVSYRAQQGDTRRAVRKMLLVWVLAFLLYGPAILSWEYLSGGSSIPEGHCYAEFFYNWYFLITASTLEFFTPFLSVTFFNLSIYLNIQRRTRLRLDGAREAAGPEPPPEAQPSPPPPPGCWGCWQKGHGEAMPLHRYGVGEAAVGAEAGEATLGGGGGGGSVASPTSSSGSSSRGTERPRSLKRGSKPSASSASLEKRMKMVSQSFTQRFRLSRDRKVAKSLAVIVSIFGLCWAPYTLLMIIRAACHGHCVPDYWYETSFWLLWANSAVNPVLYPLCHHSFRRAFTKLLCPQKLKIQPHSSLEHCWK

[6] = molecular target: T1, CYP1A (Homo sapiens, UniProt P05177); test: CYP1A inhibition
T1 sequence (P05177 2-516): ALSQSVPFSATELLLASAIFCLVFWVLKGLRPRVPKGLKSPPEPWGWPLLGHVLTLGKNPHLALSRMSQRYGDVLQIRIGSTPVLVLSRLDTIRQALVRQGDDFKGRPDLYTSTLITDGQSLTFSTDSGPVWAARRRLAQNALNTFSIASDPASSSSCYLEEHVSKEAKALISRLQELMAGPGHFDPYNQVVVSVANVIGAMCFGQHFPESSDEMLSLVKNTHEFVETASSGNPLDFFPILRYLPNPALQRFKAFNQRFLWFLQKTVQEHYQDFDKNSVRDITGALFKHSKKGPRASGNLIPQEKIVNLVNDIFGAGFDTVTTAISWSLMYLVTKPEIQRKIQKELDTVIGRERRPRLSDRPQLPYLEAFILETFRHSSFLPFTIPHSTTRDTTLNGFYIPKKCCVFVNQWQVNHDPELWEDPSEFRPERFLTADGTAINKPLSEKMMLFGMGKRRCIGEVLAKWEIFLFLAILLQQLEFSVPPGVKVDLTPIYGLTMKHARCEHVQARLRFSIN

[7] = molecular target: CYP2C19 (Homo sapiens, UniProt P33261); test: CYP2C19 inhibition; assay type: in vitro ADME; details: read-out: CYP2C19inh [IC50]
CYP2C19, sequence (P33261 whole entry): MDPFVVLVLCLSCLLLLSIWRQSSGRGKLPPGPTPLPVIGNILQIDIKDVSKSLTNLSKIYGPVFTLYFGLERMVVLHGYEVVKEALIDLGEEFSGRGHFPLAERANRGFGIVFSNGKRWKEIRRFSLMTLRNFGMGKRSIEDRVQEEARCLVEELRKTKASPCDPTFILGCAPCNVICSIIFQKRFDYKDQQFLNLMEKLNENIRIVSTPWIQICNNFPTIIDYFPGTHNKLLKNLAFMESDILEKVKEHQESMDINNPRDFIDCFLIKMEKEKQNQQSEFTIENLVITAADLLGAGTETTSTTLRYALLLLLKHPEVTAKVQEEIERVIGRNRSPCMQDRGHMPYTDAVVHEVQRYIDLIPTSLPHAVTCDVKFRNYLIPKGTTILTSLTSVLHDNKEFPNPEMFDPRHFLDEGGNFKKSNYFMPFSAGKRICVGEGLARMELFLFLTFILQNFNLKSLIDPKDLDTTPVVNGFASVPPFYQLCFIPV

[8] = molecular target: hERG (Homo sapiens, UniProt Q12809); test: Herg-binding (3H-Astemizol); details: probe 3H-astemizole
hERG, sequence (Q12809 whole entry): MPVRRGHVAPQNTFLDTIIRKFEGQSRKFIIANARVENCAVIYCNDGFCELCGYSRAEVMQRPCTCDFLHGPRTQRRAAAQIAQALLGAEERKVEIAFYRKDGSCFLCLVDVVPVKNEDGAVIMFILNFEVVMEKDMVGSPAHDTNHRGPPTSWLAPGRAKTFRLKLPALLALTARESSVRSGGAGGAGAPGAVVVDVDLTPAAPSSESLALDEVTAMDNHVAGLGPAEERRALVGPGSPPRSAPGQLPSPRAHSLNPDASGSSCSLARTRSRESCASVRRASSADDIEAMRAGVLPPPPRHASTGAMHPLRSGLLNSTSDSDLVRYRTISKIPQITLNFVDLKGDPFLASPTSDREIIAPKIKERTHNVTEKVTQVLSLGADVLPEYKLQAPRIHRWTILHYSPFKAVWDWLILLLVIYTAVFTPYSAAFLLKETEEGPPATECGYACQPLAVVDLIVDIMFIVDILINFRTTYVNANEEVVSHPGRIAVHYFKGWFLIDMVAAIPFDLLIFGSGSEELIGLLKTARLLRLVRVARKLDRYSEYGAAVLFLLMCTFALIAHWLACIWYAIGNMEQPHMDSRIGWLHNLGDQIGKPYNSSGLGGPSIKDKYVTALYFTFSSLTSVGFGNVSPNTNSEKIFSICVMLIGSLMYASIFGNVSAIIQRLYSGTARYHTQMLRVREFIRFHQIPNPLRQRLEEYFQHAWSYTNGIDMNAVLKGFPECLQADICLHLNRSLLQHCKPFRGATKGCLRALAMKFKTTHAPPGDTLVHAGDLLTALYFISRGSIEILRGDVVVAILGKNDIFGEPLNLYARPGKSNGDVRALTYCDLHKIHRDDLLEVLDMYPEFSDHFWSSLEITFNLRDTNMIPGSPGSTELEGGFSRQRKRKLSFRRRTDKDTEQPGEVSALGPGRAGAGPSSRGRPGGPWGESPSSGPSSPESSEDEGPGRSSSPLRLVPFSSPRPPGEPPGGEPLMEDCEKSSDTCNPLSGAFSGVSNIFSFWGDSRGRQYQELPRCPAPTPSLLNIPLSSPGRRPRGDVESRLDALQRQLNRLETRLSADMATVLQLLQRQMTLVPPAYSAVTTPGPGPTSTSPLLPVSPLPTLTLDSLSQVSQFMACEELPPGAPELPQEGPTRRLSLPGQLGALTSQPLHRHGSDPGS

CYP2D6, sequence (P10635 whole entry): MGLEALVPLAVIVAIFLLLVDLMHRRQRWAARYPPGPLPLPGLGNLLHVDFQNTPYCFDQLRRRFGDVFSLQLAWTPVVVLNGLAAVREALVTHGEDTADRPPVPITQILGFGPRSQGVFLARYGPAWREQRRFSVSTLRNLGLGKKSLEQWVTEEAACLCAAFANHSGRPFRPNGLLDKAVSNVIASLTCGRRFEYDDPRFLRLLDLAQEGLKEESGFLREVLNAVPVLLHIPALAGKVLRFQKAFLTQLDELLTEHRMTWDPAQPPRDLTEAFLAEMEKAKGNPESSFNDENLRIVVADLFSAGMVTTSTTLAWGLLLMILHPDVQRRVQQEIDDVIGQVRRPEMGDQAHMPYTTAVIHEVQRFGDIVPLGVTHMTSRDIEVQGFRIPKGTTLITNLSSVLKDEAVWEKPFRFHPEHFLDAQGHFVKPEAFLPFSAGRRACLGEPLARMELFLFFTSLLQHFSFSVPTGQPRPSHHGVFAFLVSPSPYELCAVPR
CYP2C9, sequence (P11712 whole entry): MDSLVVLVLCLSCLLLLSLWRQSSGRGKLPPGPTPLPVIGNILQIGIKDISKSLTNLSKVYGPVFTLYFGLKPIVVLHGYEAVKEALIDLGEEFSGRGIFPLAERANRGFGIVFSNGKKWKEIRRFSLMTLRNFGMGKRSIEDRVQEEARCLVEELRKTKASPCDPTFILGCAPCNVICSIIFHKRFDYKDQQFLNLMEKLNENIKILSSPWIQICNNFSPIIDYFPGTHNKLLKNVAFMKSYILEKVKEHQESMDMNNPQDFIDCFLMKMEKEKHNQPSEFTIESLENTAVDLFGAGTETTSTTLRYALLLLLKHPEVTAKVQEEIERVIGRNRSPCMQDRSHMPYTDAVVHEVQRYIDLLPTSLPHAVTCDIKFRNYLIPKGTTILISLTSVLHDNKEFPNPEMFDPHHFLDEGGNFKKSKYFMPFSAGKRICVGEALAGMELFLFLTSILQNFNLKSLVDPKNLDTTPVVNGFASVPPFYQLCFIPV

`Cc1cc(-c2ccc(CC3CCN(C4CCC4)CC3)nc2)ccn1.Cl.Cl` [Example 29, 6-(1-Cyclobutylpiperidin-4-ylmethyl)-2′-methyl-[3,4′]bipyridinyl] was tested, and the pIC50 [1] was less than 4.60, the pIC50 [2] was less than 4.60 and the pIC50 [3] was less than 4.60. The “Open cage schedule-fed rat model, dose 15 mg/kg p.o., food intake at 3 h” value [4] was 74.4 % of vehicle, the “Feed. Inhib. rat [Response 3 h]” value [4] was 74.4% and the pKi [5] was 8.08. It also gave a pIC50 [6] of less than 4.60, a pIC50 [7] of less than 4.60 and an inhibition at 10 µM [8] of 7%.

`CC(C)N1CCC(c2ccc(-c3ccc(C(=O)N4CCCC4)cc3)cn2)CC1.Cl.Cl` [Example 11, [4-(1′-Isopropyl-1′,2′,3′,4′,5′,6′-hexahydro-[2,4′]bipyridinyl-5-yl)phenyl]pyrrolidin-1-ylmethanone] gave a pIC50 [1] of less than 4.60, a pIC50 [2] of less than 4.60 and a pIC50 [3] of less than 4.60. For the same compound, the “Open cage schedule-fed rat model, dose 15 mg/kg p.o., food intake at 3 h” value [4] was 85.9 % of vehicle, the “Feed. Inhib. rat [Response 3 h]” value [4] was 85.9% and the pKi [5] was 7.59. It also gave a pIC50 [6] of less than 4.60, a pIC50 [7] of less than 4.60 and an inhibition at 10 µM [8] of 19%.

For `CC(C)N1CCN(Cc2ccc(-c3ccc(C(=O)N(C)C)cc3)cn2)CC1.Cl.Cl` [Example 42, 4-[6-(4-Isopropylpiperazin-1-ylmethyl)pyridin-3-yl]-N,N-dimethylbenzamide], the pIC50 [1] was less than 4.60, the pIC50 [2] was less than 4.60 and the pIC50 [3] was less than 4.60. For the same compound, the “Open cage schedule-fed rat model, dose 15 mg/kg p.o., food intake at 3 h” value [4] was 87.8 % of vehicle, the “Feed. Inhib. rat [Response 3 h]” value [4] was 87.8% and the pKi [5] was 7.77. It also gave a pIC50 [6] of less than 4.60, a pIC50 [7] of less than 4.60 and an inhibition at 10 µM [8] of 7%.
